Measurements reported in PubChem BioAssay (NCI).
Where “and” joins values, the source holds several entries; their conditions need not be identical. Equal values may be shown once.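 Following 48 hours of exposure in 96-well plates, responses at five concentrations were used to interpolate endpoints linearly. GI50 marks 50% less growth. TGI: concentration producing complete growth inhibition.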

Experiments:
Test in all cases: NCI anticancer screen, dose series, 48 h
HCC-2998 colon = system: HCC-2998 colon
SF-539 CNS = system: SF-539 CNS
HCT-15 colon = system: HCT-15 colon
OVCAR-4 ovarian = system: OVCAR-4 ovarian
MDA-N = system: MDA-N
DU-145 prostate = system: DU-145 prostate
SK-OV-3 ovarian = system: SK-OV-3 ovarian
HOP-62 NSCLC = system: HOP-62 NSCLC
KM12 colon = system: KM12 colon
U251 CNS = system: U251 CNS

Structure (SMILES) | TGI (HCC-2998 colon) | TGI (SF-539 CNS) [µM] | TGI (HCT-15 colon) | TGI (OVCAR-4 ovarian) | TGI (MDA-N) [µM] | TGI (DU-145 prostate) [µM] | TGI (SK-OV-3 ovarian) | TGI (HOP-62 NSCLC) | TGI (KM12 colon) | TGI (U251 CNS) | GI50 (HCC-2998 colon) [µM] | GI50 (SF-539 CNS) [µM] | GI50 (OVCAR-4 ovarian) [µM] | GI50 (SK-OV-3 ovarian) [µM] | GI50 (HOP-62 NSCLC) [µM] | GI50 (KM12 colon) [µM] | GI50 (U251 CNS) [µM]
CCC1(O)CC2CC(=O)OC2C1O (centres undefined) | > 100 µM | > 100 | > 100 µM | > 100 µM | > 100 | > 100 | > 100 µM | > 100 µM | > 100 µM | > 100 µM |  |  |  |  |  |  | 
C=C1c2nc3ccccc3n2C=C(c2ccccc2)N1c1ccc([N+](=O)[O-])cc1 | > 23.2 µM | 3.04 | 32.1 µM | 2.29 µM | 43.5 | > 74.7 | 15.3 µM | > 52.6 µM | 13.8 µM | 22.6 µM |  |  |  |  |  |  | 
Oc1cccc2c(Cl)ccnc12 | 14.9 µM | > 60.5 | 29.7 µM | 7.45 µM | > 100 | > 100 | 96.9 µM | > 100 µM | 82.3 µM | 22 µM |  |  |  |  |  |  | 
COc1cc(/C=C2\S/C(=N/Nc3nc(-c4ccc(Br)cc4)cs3)NC2=O)cc(OC)c1OC | 32.5 µM | 29.1 | 36.1 µM | 85 µM | 75.1 | 52.4 | 34.7 µM | 30.3 µM | 32.8 µM | 16.3 µM |  |  |  |  |  |  | 
COc1cc(/C=C/C(=N\NS(=O)(=O)c2ccc(C)cc2)c2sc(NNC(C)=O)nc2C)ccc1O | > 100 µM | > 100 | > 100 µM | > 100 µM | > 100 | > 100 | > 100 µM | > 100 µM | > 100 µM | > 100 µM |  |  |  |  |  |  | 
CC[C@@]1(C[C@H]2C[C@@]3(C(=O)OC)c4[nH]c5ccccc5c4CCN3C2=O)COC2(CCCCC2)O1 | 62.1 µM | > 100 | > 100 µM | > 100 µM | > 100 | > 100 | > 100 µM | > 100 µM | 66.9 µM |  |  |  |  |  |  |  | 
CC(C)/C(Cl)=N\OC(=O)Nc1ccc(S(N)(=O)=O)cc1 | 32.7 µM | 31.5 | 31.6 µM | 40.1 µM | 32.9 | 31.8 | 31.5 µM | > 57.2 µM | 33.3 µM | 35.7 µM |  |  |  |  |  |  | 
Clc1cc(OC2C3CC4CC(C3)CC2C4)nc(Cl)n1 (centres undefined) | 4.28 µM | 38.8 | 33.3 µM | 34.3 µM | 53.9 | 39.9 | > 100 µM | 67.1 µM | 39.1 µM | 31.9 µM |  |  |  |  |  |  | 
Cc1c2cnccc2c(C)c2c1c1ccccc1n2CCCN | 1.83 µM and 0.432 µM | 1.35 | 0.724 µM and 1.11 µM | 0.665 µM and 0.246 µM | 1.39 | 0.798 | 1.71 µM and 1.25 µM | 1.52 µM and 0.597 µM | 0.815 µM and 0.286 µM | 0.911 µM and 0.523 µM | 0.23 | 0.317 | 0.0661 | 0.278 | 0.0687 | 0.0374 | 0.0696
O=C(CCC(=O)c1ccc(Cl)cc1)NO | > 100 µM | > 100 | > 100 µM | > 100 µM | > 100 | > 100 | > 100 µM | > 100 µM | > 100 µM | > 100 µM |  |  |  |  |  |  | 
CC(C)C1/C(=N/O)CC(c2ccccc2)N(N=O)C1c1ccccc1 (centres undefined) | > 100 µM | > 100 | > 100 µM | > 100 µM | > 100 | > 100 | > 100 µM | > 100 µM | > 100 µM | > 100 µM |  |  |  |  |  |  | 
Cc1cc(O)c2c(=O)c3ccccc3[nH]c2c1 | > 100 µM | 33 | 52.1 µM | 75.8 µM | > 100 | > 100 | > 100 µM | 71.2 µM | > 100 µM | > 100 µM |  |  |  |  |  |  | 
NC(=O)C(c1ccccc1)N1OC2C(=O)N(c3ccccc3)C(=O)C2C1c1c2ccccc2c(Cl)c2ccccc12 (centres undefined) |  | > 100 | > 100 µM | > 100 µM | > 100 | > 100 | > 100 µM | > 100 µM | > 100 µM | > 100 µM |  |  |  |  |  |  | 
C(/c1ccco1)=c1/nc(-c2ccccc2)n2c1nc1ccccc12 |  | > 100 | > 100 µM | > 100 µM | 54.4 | > 100 | > 100 µM | > 100 µM | > 100 µM | > 100 µM |  |  |  |  |  |  | 
COc1ccc(C2c3cc4c(cc3OC(NNS(=O)(=O)c3ccc(C)cc3)C2C)OCO4)cc1 (centres undefined) | > 100 µM | > 100 | > 100 µM |  | > 100 | > 100 | > 100 µM | > 100 µM | > 100 µM | > 100 µM |  |  |  |  |  |  | 
Cc1cn(C2CC(N(O)C(N)=O)C(CO)O2)c(=O)[nH]c1=O (centres undefined) |  | > 100 | > 100 µM | > 100 µM | > 100 | > 100 | > 100 µM | > 100 µM | > 100 µM | > 100 µM |  |  |  |  |  |  | 
CC1(C)N=C(/C(Cl)=[N+](/[O-])C(=O)c2ccc(F)cc2)C(C)(C)N1O | 35.4 µM | 40.1 | 26.9 µM | 32.2 µM | 29.9 | 78.7 | 47 µM | 40 µM | 67.8 µM |  |  |  |  |  |  |  | 
CCC[C@@H](O)C[C@@H]1CCC[C@H](C[C@@H](O)CC)N1C | > 100 µM | > 100 | > 100 µM | > 100 µM | > 100 | > 100 | > 100 µM | > 100 µM | > 100 µM | > 100 µM |  |  |  |  |  |  | 
O=c1[nH]cc(N=Cc2cc(Cl)cc(Cl)c2O)c(=O)[nH]1 | 95.7 µM | 43.6 | > 100 µM | 57.2 µM | 93.1 | 60.4 | 53.9 µM | 57 µM | 85 µM | > 100 µM |  |  |  |  |  |  | 
CC(=O)O[C@H]1C(=O)[C@]2(C)[C@@H](OC(=O)OCCC(O)CO)C[C@H]3OC[C@@]3(OC(C)=O)[C@H]2[C@H](OC(=O)c2ccccc2)[C@]2(O)C[C@H](OC(=O)[C@H](O)[C@@H](NC(=O)c3ccccc3)c3ccccc3)C(C)=C1C2(C)C (some centres undefined) | 0.32 µM | 0.0297 | > 100 µM | > 94.3 µM | < 0.01 | 0.0657 |  | 21.6 µM |  | 18 µM |  |  |  |  |  |  | 
